The experiment has as its target human GPBAR1 receptor (Homo sapiens (Human), UniProt Q8TDU6). Briefly: functional cAMP assay in CHO-dhfr(minus) cells expressing human GPBAR1 receptors. The format is cell-based. The note with it: CHO-dhfr(minus) cells expressing human GPBAR1, 30 min at 30° C. The method, boiled down:
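Functional cAMP responses in a human GPBAR1-transfected CHO-dhfr- clone, picked using lithocholic acid as agonist, gave the EC50 values. Parallel testing in untransfected CHO cells served as a specificity control.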
A general note: Changes in cAMP serve as a functional read-out for many G protein-coupled receptors.

Chain of human GPBAR1 receptor (Q8TDU6 whole entry): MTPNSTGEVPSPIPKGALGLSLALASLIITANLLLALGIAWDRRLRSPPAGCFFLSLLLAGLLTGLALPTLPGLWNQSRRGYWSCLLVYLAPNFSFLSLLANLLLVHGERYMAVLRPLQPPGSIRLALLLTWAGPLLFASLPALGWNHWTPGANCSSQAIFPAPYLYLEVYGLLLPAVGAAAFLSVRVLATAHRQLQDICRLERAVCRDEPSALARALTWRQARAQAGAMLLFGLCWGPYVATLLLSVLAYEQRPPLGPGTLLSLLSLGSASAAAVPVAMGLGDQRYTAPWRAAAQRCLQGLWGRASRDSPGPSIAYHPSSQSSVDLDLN

Broadly, the EC50 is the concentration giving half of the maximal effect. `COc1cccc(-c2ccncc2N(C)C(=O)c2cc(C(F)(F)F)cc(C(F)(F)F)c2)n1` [Example 98, N-(6-Methoxy-[2,4′]bipyridinyl-3′-yl)-N-methyl-3,5-bis-trifluoromethyl-benzamide] yielded a half-maximal effective concentration (EC50) of 109 nM.
In turn, `COc1ccc(-c2ccncc2N(C)C(=O)c2cc(C(F)(F)F)cc(C(F)(F)F)c2)cn1` [Example 99, N-(6-Methoxy-[3,4′]bipyridinyl-3′-yl)-N-methyl-3,5-bis-trifluoromethyl-benzamide] had an EC50 of 2940 nM.
The same measure for `Cc1ccccc1-c1ccncc1N(C)C(=O)c1cc(Cl)cc(OC(F)(F)F)c1` [Example 100, 3-Chloro-N-methyl-N-(4-o-tolyl-pyridin-3-yl)-5-trifluoromethoxy-benzamide]: 207 nM; for `Cc1ccccc1-c1ccncc1N(C)C(=O)c1ccc(C(F)(F)F)c(C(F)(F)F)c1` [Example 101, N-Methyl-N-(4-o-tolyl-pyridin-3-yl)-3,4-bis-trifluoromethyl-benzamide]: 298 nM; for `CNC(=O)CN(C(=O)c1cc(C(F)(F)F)cc(C(F)(F)F)c1)c1cnccc1-c1ccccc1Cl` [Example 102, N-[4-(2-Chloro-phenyl)-pyridin-3-yl]-N-methylcarbamoylmethyl-3,5-bis-trifluoromethyl-benzamide]: 144 nM.
The same measure for `Cc1ccccc1-c1ccncc1N(C)C(=O)c1cc(F)cc(Cl)c1` [Example 103, 3-Chloro-5-fluoro-N-methyl-N-(4-o-tolyl-pyridin-3-yl)-benzamide]: 329 nM; for `Cc1ccccc1-c1ccncc1N(C)C(=O)c1cc(F)c(F)c(F)c1` [Example 104, 3,4,5-Trifluoro-N-methyl-N-(4-o-tolyl-pyridin-3-yl)-benzamide]: 1640 nM.
With `Cc1cccc(-c2ccncc2N(C)C(=O)c2cc(C(F)(F)F)cc(C(F)(F)F)c2)c1C` [Example 105, N-[4-(2,3-Dimethyl-phenyl)-pyridin-3-yl]-N-methyl-3,5-bis-trifluoromethyl-benzamide], the concentration giving a half-maximal response (EC50) worked out at 485 nM.
The same measure for `CN(C(=O)c1cc(C(F)(F)F)cc(C(F)(F)F)c1)c1cnccc1-c1cccnc1OCC(F)(F)F` [Example 106, N-Methyl-N-[2-(2,2,2-trifluoro-ethoxy)-[3,4′]bipyridinyl-3′-yl]-3,5-bis-trifluoromethyl-benzamide]: 43 nM; for `Cc1cc(C(=O)N(C)c2cnccc2-c2ccccc2C)cc(C(F)(F)F)c1` [Example 108, 3,N-Dimethyl-N-(4-o-tolyl-pyridin-3-yl)-5-trifluoromethyl-benzamide]: 70 nM; for `Cc1ccccc1-c1ccncc1N(C)C(=O)c1cc(Cl)cc(C(F)(F)F)c1` [Example 109, 3-Chloro-N-methyl-N-(4-o-tolyl-pyridin-3-yl)-5-trifluoromethyl-benzamide]: 22 nM.
The same measure for `O=C(c1cc(C(F)(F)F)cc(C(F)(F)F)c1)N(CCF)c1cnccc1-c1ccccc1Cl` [Example 110, N-[4-(2-Chloro-phenyl)-pyridin-3-yl]-N-(2-fluoro-ethyl)-3,5-bis-trifluoromethyl-benzamide]: 152 nM; for `CN(C(=O)c1cc(C(F)(F)F)cc(C(F)(F)F)c1)c1cnccc1-c1cccc(Cl)c1F` [Example 111, N-[4-(3-Chloro-2-fluoro-phenyl)-pyridin-3-yl]-N-methyl-3,5-bis-trifluoromethyl-benzamide]: 256 nM.
The molecule `CS(=O)(=O)CCN(C(=O)c1cc(C(F)(F)F)cc(C(F)(F)F)c1)c1cnccc1-c1ccccc1Cl` [Example 112, N-[4-(2-Chloro-phenyl)-pyridin-3-yl]-N-(2-methanesulfonyl-ethyl)-3,5-bis-trifluoromethyl-benzamide] came in with an EC50 of 237 nM.
The molecule `Cc1ccccc1-c1cc(-c2ccc[nH]2)ncc1N(C)C(=O)c1cc(C(F)(F)F)cc(C(F)(F)F)c1` [Example 113, N-Methyl-N-[6-(1H-pyrrol-2-yl)-4-o-tolyl-pyridin-3-yl]-3,5-bis-trifluoromethyl-benzamide] registered an EC50 of 2010 nM.
On to `Cc1ccccc1-c1ccncc1N(C)C(=O)c1cc(C(F)(F)F)cc(S(C)(=O)=O)c1` [Example 114, 3-Methanesulfonyl-N-methyl-N-(4-o-tolyl-pyridin-3-yl)-5-trifluoromethyl-benzamide], for which a half-maximal effect (EC50) was put at 30 nM. Compared with the last molecule, the EC50 is about 67-fold lower.
On to `O=C(c1cc(C(F)(F)F)cc(C(F)(F)F)c1)N(CCO)c1cnccc1-c1ccccc1Cl` [Example 115, N-[4-(2-Chloro-phenyl)-pyridin-3-yl]-N-(2-hydroxy-ethyl)-3,5-bis-trifluoromethyl-benzamide], for which the concentration giving a half-maximal response (EC50) worked out at 66 nM.
For `O=C(c1cc(C(F)(F)F)cc(C(F)(F)F)c1)N(CC(F)F)c1cnccc1-c1ccccc1Cl` [Example 116, N-[4-(2-Chloro-phenyl)-pyridin-3-yl]-N-(2,2-difluoro-ethyl)-3,5-bis-trifluoromethyl-benzamide], a half-maximal effect (EC50) was put at 88 nM.
For `NC(=O)CN(C(=O)c1cc(C(F)(F)F)cc(C(F)(F)F)c1)c1cnccc1-c1ccccc1Cl` [Example 117, N-Carbamoylmethyl-N-[4-(2-chloro-phenyl)-pyridin-3-yl]-3,5-bis-trifluoromethyl-benzamide] the value was 52 nM; for `CN(C)C(=O)CN(C(=O)c1cc(C(F)(F)F)cc(C(F)(F)F)c1)c1cnccc1-c1ccccc1Cl` [Example 118, N-[4-(2-Chloro-phenyl)-pyridin-3-yl]-N-dimethylcarbamoylmethyl-3,5-bis-trifluoromethyl-benzamide], 2470 nM.
The same measure for `Cc1cc(C(=O)N(C)c2cnccc2-c2ccccc2C)cc(Cl)n1` [Example 119, 2-Chloro-6,N-dimethyl-N-(4-o-tolyl-pyridin-3-yl)-isonicotinamide]: 610 nM.
For `Cc1ccccc1-c1ccncc1N(C)C(=O)c1cc(Cl)nc(Cl)c1` [Example 120, 2,6-Dichloro-N-methyl-N-(4-o-tolyl-pyridin-3-yl)-isonicotinamide] the value was 170 nM; for `Cc1cc(C)nc(C(=O)N(C)c2cnccc2-c2ccccc2C)c1` [Example 121, 4,6-Dimethyl-pyridine-2-carboxylic acid methyl-(4-o-tolyl-pyridin-3-yl)-amide], 1920 nM.
In the case of `Cc1cc(Cl)cc(C(=O)N(C)c2cnccc2-c2ccccc2C)n1` [Example 122, 4-Chloro-6-methyl-pyridine-2-carboxylic acid methyl-(4-o-tolyl-pyridin-3-yl)-amide], the EC50 came to 2430 nM.
The same measure for `Cc1ccccc1-c1ccncc1N(C)C(=O)c1cc(Cl)cc(Cl)n1` [Example 123, 4,6-Dichloro-pyridine-2-carboxylic acid methyl-(4-o-tolyl-pyridin-3-yl)-amide]: 473 nM; for `O=C(c1cc(C(F)(F)F)cc(C(F)(F)F)c1)N(c1cnccc1-c1ccccc1Cl)C1CC1` [Example 124, N-[4-(2-Chloro-phenyl)-pyridin-3-yl]-N-cyclopropyl-3,5-bis-trifluoromethyl-benzamide]: 1980 nM.
For `O=C(NCCN(C(=O)c1cc(C(F)(F)F)cc(C(F)(F)F)c1)c1cnccc1-c1ccccc1Cl)OCc1ccccc1` [Example 125, (2-{(3,5-Bis-trifluoromethyl-benzoyl)-[4-(2-chloro-phenyl)-pyridin-3-yl]-amino}-ethyl)-carbamic acid benzyl ester] the value was 1490 nM; for `CC(C)N(C(=O)c1cc(C(F)(F)F)cc(C(F)(F)F)c1)c1cnccc1-c1ccccc1Cl` [Example 126, N-[4-(2-Chloro-phenyl)-pyridin-3-yl]-N-isopropyl-3,5-bis-trifluoromethyl-benzamide], 620 nM.
As to `Cc1cc(-c2ccccc2C)c(N(C)C(=O)c2cc(C(F)(F)F)cc(C(F)(F)F)c2)cn1` [Example 127, N-Methyl-N-(6-methyl-4-o-tolyl-pyridin-3-yl)-3,5-bis-trifluoromethyl-benzamide], the 50% effective concentration (EC50) amounted to 75 nM.
For `Cc1ccccc1-c1ccncc1N(C)C(=O)c1cc(C(F)(F)F)cc(S(=O)(=O)N(C)C)c1` [Example 128, 3-Dimethylsulfamoyl-N-methyl-N-(4-o-tolyl-pyridin-3-yl)-5-trifluoromethyl-benzamide] the value was 29 nM; for `COc1cc(F)ccc1-c1ccncc1N(C)C(=O)c1cc(F)cc(C(F)(F)F)c1` [Example 129, 3-Fluoro-N-[4-(4-fluoro-2-methoxy-phenyl)-pyridin-3-yl]-N-methyl-5-trifluoromethyl-benzamide], 76 nM.
Molecule `COc1cc(F)c(F)cc1-c1ccncc1N(C)C(=O)c1cc(F)cc(C(F)(F)F)c1` [Example 130, N-[4-(4,5-Difluoro-2-methoxy-phenyl)-pyridin-3-yl]-3-fluoro-N-methyl-5-trifluoromethyl-benzamide] had a concentration giving a half-maximal response (EC50) of 166 nM.
For `Cc1ccccc1-c1ccncc1N(C)C(=O)c1cc(C(F)(F)F)nc(C(F)(F)F)c1` [Example 131, N-Methyl-N-(4-o-tolyl-pyridin-3-yl)-2,6-bis-trifluoromethyl-isonicotinamide] the value was 19 nM.
`COc1cc(F)c(F)cc1-c1ccncc1N(CC(F)(F)F)C(=O)c1cc(F)cc(C(F)(F)F)c1` [Example 132, N-[4-(4,5-Difluoro-2-methoxy-phenyl)-pyridin-3-yl]-3-fluoro-N-(2,2,2-trifluoro-ethyl)-5-trifluoromethyl-benzamide]: the EC50 amounted to 1330 nM. This EC50 lies about 70-fold higher than the previous one.
As for `COc1cc(F)ccc1-c1ccncc1N(CC(F)(F)F)C(=O)c1cc(C(F)(F)F)cc(S(=O)(=O)N(C)C)c1` [Example 133, 3-Dimethylsulfamoyl-N-[4-(4-fluoro-2-methoxy-phenyl)-pyridin-3-yl]-N-(2,2,2-trifluoro-ethyl)-5-trifluoromethyl-benzamide], the response was half-maximal at 39 nM (EC50).
The same measure for `COc1cc(F)ccc1-c1ccncc1N(CC(F)(F)F)C(=O)c1cc(F)cc(C(F)(F)F)c1` [Example 134, 3-Fluoro-N-[4-(4-fluoro-2-methoxy-phenyl)-pyridin-3-yl]-N-(2,2,2-trifluoro-ethyl)-5-trifluoromethyl-benzamide]: 912 nM.
